Data: publication PMC7180456, “Multitarget Anticancer Agents Based on Histone Deacetylase and Protein Kinase CK2 Inhibitors” (Molecules, 2020)

Tested on: Jurkat T-leukemia cells
Assay: Annexin V-PI double staining, FACS
Format: cell-based, human
Conditions: 10 µM and 30 µM, 24 h, comparison between compounds
Method: To confirm the pro-apoptotic activity of the studied inhibitors, Annexin V-PI double staining was addressed (Figure 7 down).
For cell death analyses, cells were stained with FITC-conjugated annexin V and propidium iodide (PI) using an apoptosis detection kit (BD Biosciences, San Jose, CA), according to the manufacturer’s instructions. In particular, 24 h after the addition of various concentration of CK2-HDAC inhibitors, Jurkat T-leukemia cells were centrifuged at 2,000 rpm, washed twice with 1x PBS, and incubated for 15 minutes in Annexin V binding buffer (BD Pharmingen, USA) containing 1/50 volume of FITC-conjugated Annexin V solution and PI (50 µg/mL). Then samples were diluted two times by appropriate volume of Annexin V binding buffer (BD Pharmingen, USA) and immediately measured on FL1/FL2 (FITC-PI) channels of FACScan flow cytometer (Becton Dickinson, USA). Analysis of the obtained results was carried out using the Cytomation Summit Software v3.1 (Cytomation Inc., USA).

## CN(C)c1nc2c(Br)c(Br)c(Br)c(Br)c2n1CCc1cn(CCC(=O)NO)nn1 [Compound 7c, N-Hydroxy-3-(4-(2-(4,5,6,7-tetrabromo-2-(dimethylamino)-1H-benzo[d]imidazol-1-yl)ethyl)-1H-1,2,3-triazol-1-yl)propanamide]
  number of annexin V-positive (apoptotic) cells: significant decrease
